Source: patent US20260085069A1, “PRODRUGS” (Cambridge Enterprise Limited, priority 2022, published 2026)
Values after ≈ are worked out from the molar mass of the structure shown.

Columns and labels:
[1] = Stability in aqueous media (FaSSIF, SGF, PBS); assay type: physicochemical; settings: for FaSSIF (pH 6.5) % remaining 1 h / FaSSIF (pH 6.5) % remaining 6 h / FaSSIF (pH 6.5) % remaining 24 h: FaSSIF pH 6.5, 37° C.; for PBS (pH 7.4) % remaining 1 h / PBS (pH 7.4) % remaining 6 h / PBS (pH 7.4) % remaining 24 h: PBS pH 7.4, 37° C.; for SGF (pH 1.2) % remaining 1 h / SGF (pH 1.2) % remaining 6 h / SGF (pH 1.2) % remaining 24 h: SGF pH 1.2, 37° C.
Experimental: 10 μL of a 10 mM stock solution of the Examples were dissolved in 490 μL DMSO to afford […] working solution SGF (pH 1.2):
Dissolve 0.04 g NaCl and 0.064 g pepsin in 0.14 mL HCl and add sufficient water to 20 mL volume. The pH of the test solution was 1.20±0.05.
0.056% (w/v) lecithin, 0.161% (w/v) sodium taurocholate, 0.39% (w/v) monobasic potassium phosphate, 0.77% (w/v) potassium chloride, deionized H2O. The pH of the test solution was 6.5±0.05.
30 mL of 10×PBS (pH7.4) was added into a 50 mL flask and diluted with water. The solution was mixed well and adjusted to pH 7.4 with 1 N HCl.
2 μL of the 200 μL working solution of the Examples was added into 96-deep-well plates for TO, T60, T120, T360 and T1440 timepoints. Duplicates were prepared.
Stability studies were commenced by the addition of 198 μL of the required media (e.g. Simulated Gastric Fluid pH 1.2 [SGF], Simulated Fasted State Intestinal Fluid pH 6.5 [FaSSIF]) and Phosphate Buffered Saline pH 7.4 [PBS]) to each well except TO. The samples were incubated at 37° C. at 600 rpm for the appointed time. The samples at the corresponding timepoint were removed and immediately mixed with 400 μL of cold acetonitrile containing 200 ng/mL tolbutamide and labetalol (internal standard). The samples were centrifuged at 4000 rpm at 4° C. for 20 minutes. 60 μL of the supernatant was removed and mixed with 180 μL purified water and thoroughly mixed and analysed by LCMS (Shimadzu LC 30-AD, ACQUITY UPLC BEH Phenyl 1.7 um 2.1*50 mm Part No. 186002884, with mobile phase A: 0.1% formic acid in water, mobile phase B: 0.1% formic acid in acetonitrile). Formation of parent was also monitored as a metabolite.
Samples were analysed by Mass Spectrometry QTRAP 6500+.

[2] = Solubility in simulated fluids (kinetic solubility, 24 hours); assay type: physicochemical; settings: thermodynamic from solid, 24 hour timepoint, room temperature
Experimental: A known quantity of the Examples and control compounds were weighed into a suitable vessel (whatman miniuniprep vials) and a known volume of the required media was added (e.g. Simulated Gastric Fluid pH 1.2 [SGF], Simulated Fasted State Intestinal Fluid pH 6.5 [FaSSIF] or Phosphate Buffered Saline pH 7.4 [PBS]). The samples were subjected to vortex mixing for 2 minutes followed by agitation on a shaker for 24 hours at room temperature at 800 rpm.

in vitro = in vitro ADME; settings: rat intestinal microsomes, NADPH, 37° C.
Experimental: 5 μL of a 10 mM stock solution of the Examples were dissolved in 495 μL acetonitrile to afford 500 μL working solution.
The appropriate amount of β-Nicotinamide adenine dinucleotide phosphate reduced form, tetrasodium salt; NADPH-4Na (NADPH) powder was weighed and diluted into a 10 mM MgCl2 solution (working solution concentration: 10 unit/mL; final concentration in reaction system: 1 unit/mL).
The appropriate concentrations of rat intestinal microsome (Xenotech, cat. No R1000.1) working solutions were prepared in 100 mM potassium phosphate buffer.
Cold (4° C.) acetonitrile (ACN) containing 200 ng/mL tolbutamide and 200 ng/mL labetalol as internal standards (IS).
Incubation plates were pre-incubated for 10 minutes at 37° C. with constant shaking. 54 μL was transferred from Incubation plates into a blank plate and then 6 μL NADPH cofactor and 180 μL quenching solution was added to the Incubation plates. 5 μL Example working solution (100 μM) was also added to the Incubation plates and mixed thoroughly.
The T60 Incubation plate was mixed thoroughly and for the 0-min timepoint, 54 μL was transferred into a Quenching plate (containing 180 μL quenching solution and 6 μL NADPH cofactor). 44 μL NADPH cofactor was then added to the T60 Incubation plate and incubated at 37° C. for 60 min while shaking. At 5, 15, 30, 45, and 60 min, 60 μL samples were transferred from T60 Incubation plate into a Quenching plate (containing 180 μl quenching solution). For the NCF60 Incubation plate, 50 μL of buffer was added and mixed thoroughly before incubation at 37° C. for 60 min while shaking, at the 60-min time point 60 μL was transferred to the Quenching plate (containing 180 μl quenching solution). All sampling plates were shaken for 10 min, then centrifuged at 4000 rpm for 20 minutes at 4° C. 80 μL supernatant was transferred into 240 μL HPLC water, and mixed for 10 min.

[3] = assay type: in vitro ADME; settings: rat plasma, 37° C.
Experimental: 5 μL of a 10 mM stock solution of the Examples were dissolved in 495 μL DMSO to afford 500 μL working solution Assay procedure:
98 μL plasma was added to each well of a 96-well reaction plate, using one plate per timepoint (Blank, TO, T10, T30, T60, and T120). 2 μL of working solution was added to each well of the reaction plates except Blank. Each plate was incubated at 37° C. for the indicated timepoint (0, 10, 30, 60, 120 minutes). At the end of incubation, 400 μL of stop solution (200 ng/mL tolbutamide and 200 ng/mL labetalol in 0.1% FA in ACN) was added to precipitate protein. The plates were then sealed and shaken for 20 minutes before centrifugation at 4000 rpm for 20 minutes. […] Formation of parent was also monitored as a metabolite.

[4] = Comparative solubility data for Reference Example 1 (thermodynamic and kinetic); assay type: physicochemical
[5] = simulated gastric fluid, SGF (pH 1.2)

Row | Structure (SMILES) | FaSSIF (pH 6.5) % remaining 1 h [1] | FaSSIF (pH 6.5) % remaining 6 h [1] | FaSSIF (pH 6.5) % remaining 24 h [1] | PBS (pH 7.4) % remaining 1 h [1] | PBS (pH 7.4) % remaining 6 h [1] | PBS (pH 7.4) % remaining 24 h [1] | SGF (pH 1.2) % remaining 1 h [1] | SGF (pH 1.2) % remaining 6 h [1] | SGF (pH 1.2) % remaining 24 h [1] | solubility kinetic at 24 h [2, 5] | solubility kinetic at 24 h ([2]; FaSSIF (pH 6.5)) | CIint(mic) (in vitro) | half-life at 1 µM (in vitro) | % Example remaining 0 min [3] | Example concentration (nM) 0 min [3] | % Example remaining 10 min [3] | Example concentration (nM) 10 min [3] | also measured
1 | CC(C)OC(=O)OCOC(=O)c1ccc2c(c1)nc(OCCOCCCCNCc1cc(F)c(OC(F)(F)F)c(F)c1)c1ccncc12 [Example 14, ((isopropoxycarbonyl)oxy)methyl 5-(2-(4-((3,5-difluoro-4-(trifluoromethoxy)benzyl)amino)butoxy)ethoxy)benzo[c][2,6]naphthyridine-8-carboxylate] | 98.2% | 93.6% | 102.8% | 91.7% | 34.3% | 4.4% | 105.1% | 63.8% | 23.2% | 15 µg/mL (≈ 22 µM) | 100 µg/mL (≈ 147 µM) | 1604.8 µL/min/mg | 1.4 min | – | – | – | – | –
2 | CC(=O)OCOC(=O)c1ccc2c(c1)nc(OCCOCCCCNCc1cc(F)c(OC(F)(F)F)c(F)c1)c1ccncc12 [Example 10, acetoxymethyl 5-(2-(4-((3,5-difluoro-4-(trifluoromethoxy)benzyl)amino)butoxy)ethoxy)benzo[c][2,6]naphthyridine-8-carboxylate] | 101.7% | 97.1% | 104.4% | 78.8% | 7.1% | 1.1% | 101.5% | 55.9% | 10.1% | 20.9 µg/mL (≈ 32.8 µM) | 91.3 µg/mL (≈ 143 µM) | 61.8 µL/min/mg | 37.4 min | 100.0% | 2023.5 nM | 0.1% | 2.1 nM | –
3 | O=C(O)c1ccc2c(c1)nc(OCCOCCCCNCc1cc(F)c(OC(F)(F)F)c(F)c1)c1ccncc12 [Reference Example 1, 5-(2-(4-((3,5-difluoro-4-(trifluoromethoxy)benzyl)amino)butoxy)ethoxy)benzo[c][2,6]naphthyridine-8-carboxylic acid] | – | – | – | – | – | – | – | – | – | – | – | – | – | – | – | – | – | solubility ([4]; aqueous buffer, kinetic from dmso stock, kinetic, phosphate buffer, initial pH 7.4): 31 µg/mL (≈ 54.8 µM); solubility ([4]; aqueous buffer, thermodynamic from solid, thermodynamic, phosphate buffer, initial pH 1.0): 256 µg/mL (≈ 453 µM); solubility ([4]; aqueous buffer, thermodynamic from solid, thermodynamic, phosphate buffer, initial pH 7.4): < 0.9 µg/mL; solubility ([4]; aqueous buffer, thermodynamic from solid, thermodynamic, phosphate buffer, initial pH 10.0): < 0.9 µg/mL; solubility ([4]; thermodynamic from solid, thermodynamic, FaSSIF, initial pH 6.5): 1.6 µg/mL (≈ 2.83 µM)
4 | CCC(=O)OCOC(=O)c1ccc2c(c1)nc(OCCOCCCCNCc1cc(F)c(OC(F)(F)F)c(F)c1)c1ccncc12 [Example 12, (propionyloxy)methyl 5-(2-(4-((3,5-difluoro-4-(trifluoromethoxy)benzyl)amino)butoxy)ethoxy)benzo[c][2,6]naphthyridine-8-carboxylate] | 94.9% | 96.5% | 99.8% | 76.4% | 6.3% | 1.1% | 101.3% | 49.5% | 10.1% | 7.4 µg/mL (≈ 11.4 µM) | 97.5 µg/mL (≈ 150 µM) | 90.8 µL/min/mg | 25.4 min | – | – | – | – | –
5 | CC(C)(C)OC(=O)c1ccc2c(c1)nc(OCCOCCCCNCc1cc(F)c(OC(F)(F)F)c(F)c1)c1ccncc12 [Example 9, tert-butyl 5-(2-(4-((3,5-difluoro-4-(trifluoromethoxy)benzyl)amino)butoxy)ethoxy)benzo[c][2,6]naphthyridine-8-carboxylate] | 92.1% | 98.3% | 96.1% | 80.9% | 27.9% | 10.0% | 102.1% | 57.9% | 19.6% | 16.1 µg/mL (≈ 25.9 µM) | 88.3 µg/mL (≈ 142 µM) | 78.9 µL/min/mg | 29.3 min | – | – | – | – | –
6 | CCOC(=O)c1ccc2c(c1)nc(OCCOCCCCNCc1cc(F)c(OC(F)(F)F)c(F)c1)c1ccncc12 [Example 8, ethyl 5-(2-(4-((3,5-difluoro-4-(trifluoromethoxy)benzyl)amino)butoxy)ethoxy)benzo[c][2,6]naphthyridine-8-carboxylate] | 98.5% | 102.6% | 100.4% | 63.2% | 25.3% | 7.6% | 108.2% | 63.8% | 23.3% | 17.8 µg/mL (≈ 30 µM) | 82.8 µg/mL (≈ 139 µM) | 37.6 µL/min/mg | 61.4 min | 100.0% | 1687.0 nM | 0.2% | 3.1 nM | –
7 | CCOC(=O)OCOC(=O)c1ccc2c(c1)nc(OCCOCCCCNCc1cc(F)c(OC(F)(F)F)c(F)c1)c1ccncc12 [Example 13, ((ethoxycarbonyl)oxy)methyl 5-(2-(4-((3,5-difluoro-4-(trifluoromethoxy)benzyl)amino)butoxy)ethoxy)benzo[c][2,6]naphthyridine-8-carboxylate] | 106.5% | 99.8% | 96.8% | 84.3% | 17.5% | 20.5% | 106.8% | 63.6% | 21.5% | 17.8 µg/mL (≈ 26.7 µM) | 98 µg/mL (≈ 147 µM) | 126.2 µL/min/mg | 18.3 min | 100.0% | 1601.0 nM | 0.1% | 1.6 nM | –
